Assay results published in US20250144187A1, “COMBINATION OF HYDROLASES AND ANTI-MICROORGANISM DRUGS AND USES THEREOF” (CENTRE FOR EYE AND VISION RESEARCH LIMITED, priority 2023, published 2025).

Experiments:
[1] = test system: MRSE; assay: High-throughput screening of 4989 compounds with human lysozyme; assay type: cell-based, Staphylococcus epidermis; details: for MRSE Inhibition ratio (%): compound 2.5 μM + 1 mg/ml lysozyme relative to compound only
[2] = test system: MRSA-infected skin wound; assay: Rat skin infection model, tedizolid phosphate/lysozyme; assay type: in vivo, Sprague Dawley (SD) rats; details: combination therapy
Procedure: 19) Skin infection model. […] Except 3 rats in uninfected group, other 12 rats were infected by 5×10^11 CFUs of mid-log phase MRSA from our own collection. Briefly, all rats were firstly pec-depilated by using 10% Na2S to get an uncovered back area of 4 cm×4 cm before 24 hours for the anesthetization on rats. Then, the skin of anesthetized rat was removed until fascial region under sterile condition, followed by spraying 5.0×10^11 CFUs of mid-log phase MRSA on wound (3 cm×3 cm). Bacterial suspensions were collected by below-described method [Zhang. […] Specifically, mid-log phase MRSA was collected by centrifugation at 4500 g for 15 minutes, washed with PBS for 3 limes and re-suspended in cold PBS to get bacterial suspension with an initial density of about 4.0×10^11 CFU/ml according to pre-experiment. Next, 1.25 ml of bacterial suspension was sprayed onto wound. […] All sterile medical gauzes were 0.2 g/cm^2, and further covered by two layers of sterile gauzes and fixed by sterile tapes. Next, rats were monitored until they were fully awake, and then returned to their cages. After 24 hours infection, these sterile medical gauzes were replaced with new sterile medical gauzes soaking different drugs, i.e., normal saline, tedizolid phosphate (0.167 mg/kg) or lysozyme (0.833 mg/kg), or their combination (0.167 mg tedizolid phosphates/kg rat+0.833 mg lysosyme/kg rat), respectively. Meanwhile, rats in uninfected group were treated with new sterile medical gauzes soaking normal saline. All steps were repeated at 48-, 72-, 96-, 120- and 144-hr post-inoculation. At 168 hours post-inoculation, all rats were sacrificed to collect their wounds. These collected tissues were fixed in 10% formalin for at least 24 hours and embedded in paraffin. Next, about 4-μm sections were analyzed by using the hematoxylin and eosin (H-E) staining kit. […] Meanwhile, this homogenate was also 10-fold gradient-diluted in 96-well plate to figure out the bacterial load in infected wound according to quantitative grown colony after overnight culture. […]

[3] = test system: MRSA ocular infection; assay: Ocular infection model, tedizolid phosphate/lysozyme; assay type: in vivo, C57BL/6 mice
Source text: 20) Ocular infection model. According to the reported method [Zhang, Z et al., Curt. Protoc, mouse Bot 7, 55-63 (2017)], 40 C57BL/6, male mice ([…]) were used to evaluate the combination effect in the ocular infection model. Specifically, all mice were divided into 5 groups (4 infected groups and 1 uninfected group, 8 mice per group). Among than, 32 mice in infected groups were infected by slowly inoculating about 2.5×10^7 CFUs of mid-log phase MRSA into each ocular surface. To collect these mid-tog phase ARA, a colony of MRSA cultured in LB-agar plate was firstly picked up and inoculated into fresh LB medium for overnight incubation at 37° C. Then, the overnight culture was diluted (1:300) into fresh LB medium for continuous culture until bacterial OD600 was about 0.6. […] Next, 2.5 μl of bacterial suspensions were slowly inoculated into each ocular surface of anesthetized C57/BL6 mouse on the side of surgical bed. […] After that, they were repeated from the air-anesthetizing room and monitored until they were fully awake, followed by retuned to their cages. […] Then, according to the standard protocol^28, 3 μl of tear fluid was gradient-diluted at 10-fold in 96-well plat to figure out the initial number of viable bacteria in tear fluid according to quantitative grown colony after overnight culture. […]

[4] = test system: MRSE; assay: Mutation frequency and prevention concentration analysis, tedizolid phosphate/lysozyme

| Structure (SMILES) | MRSE Combination ([1]; OD600 at 24-hour, compound 2.5 μM + 1 mg/ml lysozyme) | MRSE Drug only ([1]; OD600 at 24-hour, compound 2.5 μM without lysozyme) | MRSE Inhibition ratio (%) [1] | MRSE Inhibition ratio (%) ([1]; listed as Ce ? dinir) | decrease in the level of IL-6 ([2]; 7 days) | decrease in the level of ROS ([2]; 7 days) [%] | reduction of bacterial load in the wound ([2]; 168 hours post-inoculation) | expression level of SP-D in tear fluids ([3]; combination group compared with uninfected group) [fold] | bacterial load in both tear fluids and eyeball homogenates ([3]; combination therapy (0.125 mg/ml tedizolid phosphate + 100 mg/ml lysozyme)) [fold] | mutation frequencies ([4]; combination with lysozyme) | prevention concentrations of tedizolid phosphate ([4]; combination with lysozyme) [µg/mL] | mutation frequencies ([4]; without combination therapy) | prevention concentrations of tedizolid phosphate ([4]; without lysozyme) [µg/mL] |
| --- | --- | --- | --- | --- | --- | --- | --- | --- | --- | --- | --- | --- | --- |
| C=CC1=C(C(=O)O)N2C(=O)[C@@H](NC(=O)/C(=N\O)c3csc(N)n3)[C@H]2SC1 [cefdinir, Cefdinir] | 0.0528 | 0.6206 | above 90% | 99.68 |  |  |  |  |  |  |  |  |  |
| Cn1nnc(-c2ccc(-c3ccc(N4C[C@H](COP(=O)(O)O)OC4=O)cc3F)cn2)n1 [tedizolid phosphate, Tedizolid Phosphate] |  |  |  |  | more than 20% | > 70 | > 10^6 fold | 1.5 | 0.01 | 2×10^−9 | ≤ 1 | ≥ 5×10^−7 | > 50 |
